According to US4146501A, “Process for isolating and purifying taste bud receptors for screening and evaluating tastants” (priority 1976, dated 1979):
“Also recorded” adds a separate entry of the source.

Tests used:
[1] = system: non-taste bud bearing epithelial tissue filtrates and B subfractions [P2,4(B)]; assay: Binding of 14C sugars to non-taste bud bearing epithelial tissue filtrates and B subfractions (control); set-up: species or system bovine; conditions: Epi; for 14C sugar binding: 30 min at 30° C
Experimental: (§1) The following procedure was utilized in tastant evaluation according to the process of this invention: Protein concentrations were determined by the methods of Lowry et al., (1951) J. Biol. […] According to density, physical appearance as determined by using electron microscopic morphology enzymatic activity and chemical analysis, B subfractions from taste buds and epithelial tissues achieved the greatest membrane purification compared with other subfractions. Among the taste bud B subfractions, P4(B) was morphologically more homogeneous with respect to membranes than P3(B) whereas P2(B) was the least homogeneous of all. Epithelial tissue B subfractions contained mainly fibrous tissue and few differences were found in morphology, density, enzymatic activity or chemical analysis between P2(B) or P4(B) subfractions. Taste bud and epithelial tissue D subfractions contained relatively few membrane fragments compared to the large amount of other cellular organelles present and therefore were not included in these studies. […] Each filtrate and subfraction was washed three times with calcium free, 0.2 M Krebs-Ringer bicarbonate (KRB) pH 7.4, suspended in the same buffer in a final volume of 2 ml and frozen in liquid nitrogen. No detectable change in binding characteristics from suspensions of taste bud or epithelial tissue fractions was observed after storage at -80° for as long as two months. All binding studies were carried out in plastic micro test tubes in a constant temperature shaking bath. For these studies KRB, suspensions of the initial filtrates, subfractions and ^14 C labeled and/or unlabeled sugars were incubated in a final volume of 100 μl. After incubation the tubes were placed in an ice bath, centrifuged, the supernatant aspirated and 10 μl KRB layered on top of the pellet. The KRB was then aspirated, the top of the test tube cut off with a razor blade just above the bellet, placed into 10 ml Aquasol (New England Nuclear Corp., Boston, Mass.) and the radioactivity determined in a liquid scintillation spectrophotometer. Controls, without filtrates or subfractions, were also included. […] The tubes were then placed in an ice bath for 3 minutes, and then centrifuged at 15,000 rpm for 6 min.

[2] = system: taste bud P4(B) subfractions; assay: Specific binding: competition of 14C sugars or SSS with unlabeled homologous and heterologous sugars, Scatchard analysis; set-up: species or system bovine; conditions: for Kd: Scatchard plot, mean ± 1 SEM, read-out: Kd (dissociation constant); for Kd / q (concentration of sugar or SSS bound per mg subfraction protein): single class of sites; for Inhibition (%) of 14C Fructose binding by unlabelled sugar / Inhibition (%) of 14C Glucose binding by unlabelled sugar / Inhibition (%) of 14C Sucrose binding by unlabelled sugar: maximal concentration of unlabelled sugar, range of values; for Relative Binding Inhibition: homologous set at 100; for specific binding (competition of 14C sugar or SSS with homologous unlabeled sugar or SSS): taste bud P4(B), FIG. 7
Experimental: All binding studies were carried out in plastic micro test tubes in a constant temperature shaking bath. […] After incubation the tubes were placed in an ice bath, centrifuged, the supernatant aspirated and 10 μl KRB layered on top of the pellet. The KRB was then aspirated, the top of the test tube cut off with a razor blade just above the bellet, placed into 10 ml Aquasol (New England Nuclear Corp., Boston, Mass.) and the radioactivity determined in a liquid scintillation spectrophotometer. Controls, without filtrates or subfractions, were also included.

[3] = behavioral basis, cow; cited from earlier work
[4] = system: taste bud filtrates and B subfractions [P2,3,4(B)]; assay: Binding of 14C sugars to taste bud filtrates and B subfractions; set-up: species or system bovine; conditions: Bud; for 14C sugar binding: 30 min at 30° C
Experimental: as §1

[5] = man; cited from earlier work
[6] = system: taste bud subfraction P4(B); assay: Binding inhibition of 14C sucrose by various substances; set-up: species or system bovine
[7] = system: epithelial tissue P4(B) subfractions; assay: Specific binding: competition of 14C sugars or SSS with unlabeled homologous sugars (epithelial control); set-up: species or system bovine; conditions: FIG. 7
Experimental: All binding studies were carried out in plastic micro test tubes in a constant temperature shaking bath. For these studies KRB, suspensions of the initial filtrates, subfractions and ^14 C labeled and/or unlabeled sugars were incubated in a final volume of 100 μl. After incubation the tubes were placed in an ice bath, centrifuged, the supernatant aspirated and 10 μl KRB layered on top of the pellet. The KRB was then aspirated, the top of the test tube cut off with a razor blade just above the bellet, placed into 10 ml Aquasol (New England Nuclear Corp., Boston, Mass.) and the radioactivity determined in a liquid scintillation spectrophotometer. Controls, without filtrates or subfractions, were also included.

[8] = Filtrate, 14C glucose 200 μM, fructose 400 μM, sucrose 26 μM
[9] = section FRUCTOSE (as the 14C sugar per footnote) with each unlabelled sugar
[10] = section SUCROSE (as the 14C sugar per footnote) with each unlabelled sugar

## O=C(CO)[C@@H](O)[C@H](O)[C@H](O)CO [Fructose, fructose]
[1]; [8]
  14C sugar binding: 88000 cpm/mg protein
[1]; P2(B)
  Relative enrichment of sugar binding compared to the initial filtrate: 1.1
  14C sugar binding: 95000 cpm/mg protein
[1]; P4(B)
  Relative enrichment of sugar binding compared to the initial filtrate: 0.9
  14C sugar binding: 78000 cpm/mg protein
[2]; FIG. 8, in words
  competition of unlabeled sugar with glucose binding: competed with glucose
  competition of unlabeled sugar with sucrose binding: did not
[2]
  Kd: 1800 ± 900 µM
  Inhibition (%) of 14C Fructose binding by unlabelled sugar: 70-80%
  Inhibition (%) of 14C Glucose binding by unlabelled sugar: 36-40%
  Inhibition (%) of 14C Sucrose binding by unlabelled sugar: 14-20%
  q (concentration of sugar or SSS bound per mg subfraction protein): 10.5 ± 1.2 mM/mg protein
  specific binding (competition of 14C sugar or SSS with homologous unlabeled sugar or SSS): occurred
[2]; listed as fructose
  Inhibition (%) of 14C Fructose binding by unlabelled sugar: about 80%
[2]; [9]
  Relative Binding Inhibition: 100%
[2]; [10]
  Relative Binding Inhibition: 59%
[3]
  bovine discrimination thresholds: 0.06 M
[4]; [8]
  14C sugar binding: 153000 cpm/mg protein
[4]; P2(B)
  Relative enrichment of sugar binding compared to the initial filtrate: 3.7
  14C sugar binding: 569000 cpm/mg protein
[4]; P3(B)
  Relative enrichment of sugar binding compared to the initial filtrate: 8.5
  14C sugar binding: 1.3e+06 cpm/mg protein
[4]; P4(B)
  Relative enrichment of sugar binding compared to the initial filtrate: 17.8
  14C sugar binding: 2.72e+06 cpm/mg protein
[5]
  Recognition thresholds in man: 0.01 to 0.03 M

## OC[C@H]1OC(O)[C@H](O)[C@@H](O)[C@@H]1O (stereo partly drawn) [Glucose, glucose]
[1]; [8]
  14C sugar binding: 22000 cpm/mg protein
[1]; P2(B)
  Relative enrichment of sugar binding compared to the initial filtrate: 1.3
  14C sugar binding: 29000 cpm/mg protein
[1]; P4(B)
  Relative enrichment of sugar binding compared to the initial filtrate: 0.8
  14C sugar binding: 17000 cpm/mg protein
[2]; FIG. 8, in words
  competition of unlabeled sugar with fructose binding: did not compete
  competition of unlabeled sugar with sucrose binding: did not compete
[2]
  Kd: 3400 ± 1100 µM
  Inhibition (%) of 14C Fructose binding by unlabelled sugar: 14-20%
  Inhibition (%) of 14C Glucose binding by unlabelled sugar: 70-80%
  Inhibition (%) of 14C Sucrose binding by unlabelled sugar: 14-20%
  q (concentration of sugar or SSS bound per mg subfraction protein): 2.5 ± 0.5 mM/mg protein
  specific binding (competition of 14C sugar or SSS with homologous unlabeled sugar or SSS): occurred
[2]; listed as glucose
  Inhibition (%) of 14C Glucose binding by unlabelled sugar: eighty
[2]; [9]
  Relative Binding Inhibition: 51%
[2]; section GLUCOSE (as the 14C sugar per footnote) with each unlabelled sugar
  Relative Binding Inhibition: 100%
[2]; [10]
  Relative Binding Inhibition: 32%
[4]; [8]
  14C sugar binding: 37000 cpm/mg protein
[4]; P2(B)
  Relative enrichment of sugar binding compared to the initial filtrate: 3.2
  14C sugar binding: 120000 cpm/mg protein
[4]; P3(B)
  Relative enrichment of sugar binding compared to the initial filtrate: 9.7
  14C sugar binding: 360000 cpm/mg protein
[4]; P4(B)
  Relative enrichment of sugar binding compared to the initial filtrate: 9.4
  14C sugar binding: 348000 cpm/mg protein
[5]
  Recognition thresholds in man: 0.01 to 0.03 M

## [Cl-].[Na+] [NaCl]
[6]
  inhibition of 14C sucrose binding: ~50%

## OC[C@H]1O[C@@H](O[C@H]2[C@H](O)[C@@H](O)C(O)O[C@@H]2CO)[C@H](O)[C@@H](O)[C@H]1O (stereo partly drawn) [lactose]
[2]
  specific binding (competition of 14C sugar or SSS with homologous unlabeled sugar or SSS): did not compete; also recorded: did not bind specifically
[7]
  specific binding (competition of 14C sugar or SSS with homologous unlabeled sugar or SSS): did not compete; also recorded: did not bind specifically

## [Cl-].[Cl-].[Zn+2] [ZnCl2]
[6]; 5 mM EDTA plus 20 mM Zn++
  sucrose binding activity restored, of the initial activity measured in the absence of EDTA: about 85%
